According to US10526309B2, “Pan-TAM inhibitors and Mer/Axl dual inhibitors” (The University of North Carolina at Chapel Hill, priority 2015, dated 2020):
Like-named read-outs stand apart in the source and are kept apart here.

Legend:
Type in all cases: biochemical
Tyro3 = target: T1, Tyro3 (Homo sapiens, UniProt Q06418); experiment: Tyro3 kinase inhibition IC50
T1 sequence (Q06418 41-890): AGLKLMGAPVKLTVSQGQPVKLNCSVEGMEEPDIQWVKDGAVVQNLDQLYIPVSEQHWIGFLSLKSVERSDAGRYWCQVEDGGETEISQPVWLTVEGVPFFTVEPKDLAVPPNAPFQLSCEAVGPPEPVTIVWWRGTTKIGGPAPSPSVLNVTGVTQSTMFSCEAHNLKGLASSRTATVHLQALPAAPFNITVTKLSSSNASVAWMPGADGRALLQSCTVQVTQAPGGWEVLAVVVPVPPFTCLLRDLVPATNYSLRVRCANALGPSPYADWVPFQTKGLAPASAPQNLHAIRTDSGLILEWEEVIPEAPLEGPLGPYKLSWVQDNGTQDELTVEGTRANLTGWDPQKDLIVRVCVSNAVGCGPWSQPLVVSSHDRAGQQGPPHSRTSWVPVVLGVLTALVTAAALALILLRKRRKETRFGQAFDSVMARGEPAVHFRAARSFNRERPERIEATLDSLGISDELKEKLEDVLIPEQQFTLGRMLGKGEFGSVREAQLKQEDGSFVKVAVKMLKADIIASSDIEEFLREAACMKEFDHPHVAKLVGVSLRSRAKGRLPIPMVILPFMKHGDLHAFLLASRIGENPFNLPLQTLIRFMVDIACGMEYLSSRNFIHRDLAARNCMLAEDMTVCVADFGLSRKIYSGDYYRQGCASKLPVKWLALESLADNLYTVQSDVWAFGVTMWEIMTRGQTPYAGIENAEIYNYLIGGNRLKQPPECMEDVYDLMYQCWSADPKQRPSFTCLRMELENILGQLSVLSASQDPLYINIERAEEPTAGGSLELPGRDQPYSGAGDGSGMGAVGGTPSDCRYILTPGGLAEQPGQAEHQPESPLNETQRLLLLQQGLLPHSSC

Axl = target: T2, Axl (Homo sapiens, UniProt P30530); experiment: Axl kinase inhibition IC50
T2 sequence (P30530 26-894): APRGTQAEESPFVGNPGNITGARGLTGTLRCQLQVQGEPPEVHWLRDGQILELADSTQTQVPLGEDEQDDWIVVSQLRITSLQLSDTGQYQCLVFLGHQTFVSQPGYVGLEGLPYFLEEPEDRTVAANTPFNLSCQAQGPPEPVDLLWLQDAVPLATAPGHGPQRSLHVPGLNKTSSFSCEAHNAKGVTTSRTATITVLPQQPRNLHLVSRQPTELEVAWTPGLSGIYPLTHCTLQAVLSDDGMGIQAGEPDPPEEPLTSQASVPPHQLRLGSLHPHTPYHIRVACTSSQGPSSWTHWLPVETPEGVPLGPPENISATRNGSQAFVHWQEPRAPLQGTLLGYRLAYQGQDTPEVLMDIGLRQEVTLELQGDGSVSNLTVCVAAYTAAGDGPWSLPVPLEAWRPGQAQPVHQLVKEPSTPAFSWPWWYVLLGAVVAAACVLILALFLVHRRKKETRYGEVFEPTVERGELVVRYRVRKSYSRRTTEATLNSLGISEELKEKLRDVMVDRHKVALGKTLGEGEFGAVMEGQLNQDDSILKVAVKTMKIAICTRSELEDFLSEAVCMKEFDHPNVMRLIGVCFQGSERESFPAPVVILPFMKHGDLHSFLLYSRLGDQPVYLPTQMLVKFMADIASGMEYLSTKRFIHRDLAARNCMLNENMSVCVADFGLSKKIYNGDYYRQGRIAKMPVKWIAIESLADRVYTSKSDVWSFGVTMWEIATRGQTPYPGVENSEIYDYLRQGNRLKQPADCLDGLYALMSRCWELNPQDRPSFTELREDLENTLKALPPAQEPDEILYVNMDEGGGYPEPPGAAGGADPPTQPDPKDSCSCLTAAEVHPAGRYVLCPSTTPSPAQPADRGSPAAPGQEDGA

Mer = target: T3, Mer (Homo sapiens, UniProt Q12866); experiment: Mer kinase inhibition IC50; conditions: read-out: Mer IC50
T3 sequence (Q12866 21-999): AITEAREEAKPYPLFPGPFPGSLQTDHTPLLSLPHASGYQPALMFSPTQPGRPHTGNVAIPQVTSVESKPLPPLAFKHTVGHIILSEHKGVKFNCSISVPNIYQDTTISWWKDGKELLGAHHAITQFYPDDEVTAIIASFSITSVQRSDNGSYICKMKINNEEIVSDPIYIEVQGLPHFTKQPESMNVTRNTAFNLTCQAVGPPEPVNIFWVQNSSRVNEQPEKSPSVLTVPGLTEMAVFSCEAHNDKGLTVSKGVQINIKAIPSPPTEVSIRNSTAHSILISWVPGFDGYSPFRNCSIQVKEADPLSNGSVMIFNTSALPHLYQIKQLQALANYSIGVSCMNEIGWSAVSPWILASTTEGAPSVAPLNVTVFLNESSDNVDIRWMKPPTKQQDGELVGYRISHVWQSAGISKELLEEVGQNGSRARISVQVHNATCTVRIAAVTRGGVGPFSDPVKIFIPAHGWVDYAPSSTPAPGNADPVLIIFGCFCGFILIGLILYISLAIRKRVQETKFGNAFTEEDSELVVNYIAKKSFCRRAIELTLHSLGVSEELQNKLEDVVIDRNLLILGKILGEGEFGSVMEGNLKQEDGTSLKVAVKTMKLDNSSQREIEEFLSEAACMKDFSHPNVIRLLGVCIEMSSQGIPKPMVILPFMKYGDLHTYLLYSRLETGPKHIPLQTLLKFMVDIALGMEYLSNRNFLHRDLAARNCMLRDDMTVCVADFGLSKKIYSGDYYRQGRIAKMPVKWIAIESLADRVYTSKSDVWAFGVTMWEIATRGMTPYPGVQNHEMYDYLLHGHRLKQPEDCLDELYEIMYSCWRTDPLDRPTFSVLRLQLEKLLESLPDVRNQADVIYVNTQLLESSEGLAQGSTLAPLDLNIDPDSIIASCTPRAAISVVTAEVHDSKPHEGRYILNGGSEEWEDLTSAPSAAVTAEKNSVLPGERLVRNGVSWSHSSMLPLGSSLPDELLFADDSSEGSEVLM

Row | Compound | IC50 (Tyro3; Table 3, read-out: Tyro3 IC50) [nM] | IC50 (Mer; Table 3) [nM] | IC50 (Axl; Table 3) [nM] | IC50 (Mer; Table 2) [nM] | further results
1 | O[C@H]1CC[C@H](Nc2nc(Nc3ccccc3)ncc2-c2ccccn2)CC1 [UNC3029A] |  |  |  |  | IC50 (Tyro3; Table 1, read-out: Tyro3 IC50): < 10 nM; IC50 (Axl; Table 1): 100 to 1000 nM
2 | O=S(=O)(c1ccc(-c2cnc(Nc3ccc(C#Cc4cc(C5OCCO5)ccn4)cc3)nc2N[C@H]2CC[C@H](O)CC2)nc1)N1CCOCC1 [UNC3619A] | < 10 | < 10 | 100 to 1000 |  | 
3 | CC(C)C(=O)Nc1ccnc(C#Cc2ccc(Nc3ncc(-c4ccc(CN5CCN(C)CC5)cc4)c(N[C@H]4CC[C@H](O)CC4)n3)cc2Cl)c1 [UNC4047A] | < 10 | < 10 | < 10 |  | 
4 | COc1cccc(Oc2ccnc(C#Cc3ccc(Nc4ncc(-c5ccccn5)c(N[C@H]5CC[C@H](O)CC5)n4)cc3)c2)c1 [UNC4393A] |  |  |  |  | IC50 (Tyro3; Table 5, read-out: Tryo3 IC50): 1000 to 30000 nM; IC50 (Mer; Table 5): 1000 to 30000 nM; IC50 (Axl; Table 5): 1000 to 30000 nM
5 | O[C@H]1CC[C@H](Nc2nc(Nc3ccc(C#Cc4cc(-c5ccncc5)ccn4)cc3)ncc2-c2ccccn2)CC1 [UNC4363A] |  |  |  |  | IC50 (Tyro3; Table 4, read-out: Tryo3 IC50): 100 to 1000 nM; IC50 (Mer; Table 4): 10 to 100 nM; IC50 (Axl; Table 4): 1000 to 30000 nM
6 | CCNC(=O)c1ccnc(C#Cc2ccc(Nc3ncc(-c4ccccn4)c(N[C@H]4CC[C@H](O)CC4)n3)cc2)c1 [UNC3458A] | < 10 | < 10 | < 10 |  | 
7 | CC(C)N1CCC(=Cc2ccc(-c3cnc(Nc4ccc(F)cc4)nc3N[C@H]3CC[C@H](O)CC3)nc2)CC1 [UNC4397A] |  |  |  |  | IC50 (Tyro3; Table 1, read-out: Tyro3 IC50): < 10 nM; IC50 (Mer; Table 1): < 10 nM; IC50 (Axl; Table 1): < 10 nM
8 | CN1CCN(Cc2ccc(-c3cnc(Nc4ccc(C#Cc5cc(NC(=O)C6CCCC6)ccn5)cc4)nc3N[C@H]3CC[C@H](O)CC3)cc2)CC1 [UNC3872A] | < 10 | < 10 | < 10 |  | 
9 | CN1CCN(Cc2ccc(-c3cnc(Nc4ccc(C#Cc5cc(NC(=O)C6CCC6)ccn5)cc4)nc3N[C@H]3CC[C@H](O)CC3)cc2)CC1 [UNC3871A] | < 10 | < 10 | 10 to 100 |  | 
10 | CN1CCN(Cc2ccc(-c3cnc(Nc4ccc(C#Cc5cc(C6OCCO6)ccn5)cc4)nc3N[C@H]3CC[C@H](O)CC3)cc2)CC1 [UNC3437A] |  | 10 to 100 | 100 to 1000 |  | 

The next lines start with results.

Row | IC50 (Tyro3; Table 3, read-out: Tyro3 IC50) [nM] | IC50 (Mer; Table 3) [nM] | IC50 (Axl; Table 3) [nM] | IC50 (Mer; Table 2) [nM] | Compound | further results
11 |  |  |  | 10 to 100 | CC(C)Nc1nc(Nc2ccc(C3CCN(C)CC3)cc2)ncc1-c1ccccn1 [UNC5135A] | IC50 (Tyro3; Table 2, read-out: Tyro3 IC50): 100 to 1000 nM; IC50 (Axl; Table 2): 100 to 1000 nM
12 |  |  |  | 100 to 1000 | O[C@H]1CC[C@H](Nc2nc(Nc3ccc(C4=CCCN(C5CCC5)C4)cc3)ncc2-c2ccccn2)CC1 [UNC5070A] | IC50 (Tyro3; Table 2, read-out: Tyro3 IC50): 100 to 1000 nM; IC50 (Axl; Table 2): 1000 to 30000 nM
13 |  |  |  | 10 to 100 | CN1CCC(N2CC=C(c3ccc(Nc4ncc(-c5ccccn5)c(N[C@H]5CC[C@H](O)CC5)n4)cc3)CC2)CC1 [UNC5052A] | IC50 (Tyro3; Table 2, read-out: Tyro3 IC50): 100 to 1000 nM; IC50 (Axl; Table 2): 100 to 1000 nM
14 |  |  |  | 100 to 1000 | O[C@H]1CC[C@H](Nc2nc(Nc3ccc(C4CCCNC4)cc3)ncc2-c2ccccn2)CC1 (some centres unmarked) [UNC5129A] | IC50 (Tyro3; Table 2, read-out: Tyro3 IC50): 100 to 1000 nM; IC50 (Axl; Table 2): 100 to 1000 nM
15 |  |  |  | 100 to 1000 | CN1CCN(Cc2ccc(-c3ccc(Nc4ncc(-c5ccccn5)c(N[C@H]5CC[C@H](O)CC5)n4)cc3)cc2)CC1 [UNC4437A] | 
